Read-outs that look alike come from different tables or passages of the source.
Tests used:
[1] = Live/Dead cytotoxicity assay, hybridoma supernatant; format: cell-based; settings: human, hybridoma supernatant (or cycloheximide positive control), calcein
Method: Three human breast cancer cell lines were tested: MDA-MB-231, MDA-MB-468 and SKBR-3. […] The wells that served as the positive controls were aspirated until empty and 100 μL of sodium azide (NaN3) or cycloheximide was added. After 5 days of treatment, the plates were then emptied by inverting and blotting dry. […] The AR2A72.10 hybridoma produced specific cytotoxicity of 15,27 and 44 percent in MDA-MB-231, MDA-MB-468 and SKBR-3 cells respectively. The known non-specific cytotoxic agent cycloheximide produced cytotoxicity as expected given the limitations of in vitro biological assays.

[2] = system: Hs888 Lu; settings: 5 days; AR2A72.10 and AR3BD-26 20 μg/mL, anti-fas and anti-Her2/neu 10 μg/mL, anti-EGFR 5 μg/mL, cycloheximide 0.5 μM, NaN3 0.1%
Method: Antibodies were tested against a panel of ovarian cancer, and normal cell lines. Two ovarian cancer (OVCAR-3, Sk-OV-3) and non-cancer (CCD-27sk, Hs888.Lu) cell lines were obtained from the ATCC, Manassas, Va. A2780-cp, A2780-s, C-13, OV2008, ES-2, Hey, OCC-1, OVCA-429 were obtained from the Ottawa Regional Cancer Center (Ottawa, ON). The Live/Dead cytotoxicity assay was obtained from Molecular Probes (Eugene, Oreg.). The assays were performed according to the manufacturer's instructions with the changes outlined below. Cells were plated before the assay at the predetermined appropriate density. After 2 days, purified antibody or controls were diluted into media, and then 100 microliters were transferred to the cell plates and incubated in a 5 percent CO2 incubator for 5 days. The plate was then emptied by inverting and blotted dry. Room temperature DPBS containing MgCl2 and CaCl2 was dispensed into each well from a multi-channel squeeze bottle, tapped three times, emptied by inversion and then blotted dry. 50 microliters of the fluorescent calcein dye diluted in DPBS containing MgCl2 and CaCl2 was added to each well and incubated at 37° C. in a 5 percent CO2 incubator for 30 minutes. […]

SMILES | cytotoxicity at 5 days ([1]; read-out: Cytotoxicity (%) MDA-MB-231 Average) | cytotoxicity at 5 days ([1]; read-out: Cytotoxicity (%) MDA-MB-468 Average) | cytotoxicity at 5 days ([1]; read-out: Cytotoxicity (%) SKBR-3 Average) | In vitro cytotoxicity, Hs888 Lu (normal) [2]
C[C@@H]1C[C@@H]([C@H](O)CC2CC(=O)NC(=O)C2)C(=O)[C@@H](C)C1 [Cycloheximide] | 49% | 24% | 56% | –
[N-]=[N+]=[N-] [NaN3, sodium azide] | – | – | – | +++ (4/4 experiments greater than threshold cytotoxicity)
